Earlier results as cited in patent US20150164812A1, “Porous Tablets As Carriers For Liquid Formulations” (Veloxis Pharmaceuticals A/S, priority 2004, published 2015).
Where a name gives a salt, the structure may show the parent alone. Read-outs that look alike come from different tables or passages of the source.

What was measured:
[1] = not given; remark: listed apart in the source
[2] = Table 1 Poorly-Soluble Drug Candidates
[3] = Table 2 Poorly-Soluble Drugs with Low Bioavailability

Row | SMILES | Solubility In Water [2] | Solubility In Water [3] | other results
1 | Cc1nnc2n1-c1ccc(Cl)cc1C(c1ccccc1)=NC2 [Alprazolam] | Insoluble |  | 
2 | COc1ccc(CCN2CCC(Nc3nc4ccccc4n3Cc3ccc(F)cc3)CC2)cc1 [Astemizole] | Insoluble | Insoluble | Bioavailability ([1]; in words): Low-moderate
3 | CC(=O)OC[C@H]1O[C@@H]([S-])[C@H](OC(C)=O)[C@@H](OC(C)=O)[C@@H]1OC(C)=O.CCP(CC)CC.[Au+] [Auranofin] |  | Slightly soluble | Bioavailability ([1]; in vivo): Low (15-25%)
4 | CN1CCCC(n2nc(Cc3ccc(Cl)cc3)c3ccccc3c2=O)CC1 (stereo not drawn) [Azelastine] | Insoluble |  | 
5 | OC(CCN1CCCCC1)(c1ccccc1)C1CC2C=CC1C2 (stereo not drawn) [Biperiden] |  | Sparingly soluble | 
6 | C=CCC1(CC(C)C)C(=O)NC(=O)NC1=O [Butalbital] | Insoluble |  | 
7 | NC(=O)N1c2ccccc2C=Cc2ccccc21 [Carbamazepine] | Insoluble |  | 
8 | C[C@@](Cc1ccc(O)c(O)c1)(NN)C(=O)O [Carbidopa] | Slightly |  | 
9 | CO/N=C(\C(=O)N[C@@H]1C(=O)N2C(C(=O)O)=C(COC(C)=O)CS[C@H]12)c1csc(N)n1 [Cefotaxime] | Sparingly |  | 
10 | CN1CCC[C@@H]1CCO[C@](C)(c1ccccc1)c1ccc(Cl)cc1 [Clemastine fumarate] |  | Slightly soluble | 
11 | CN1CCN(C2=Nc3cc(Cl)ccc3Nc3ccccc32)CC1 [Clozapine] | Slightly |  | 
12 | CC1CC(OC(=O)C(O)c2ccccc2)CC(C)(C)C1 (stereo not drawn) [Cyclandelate] |  | Insoluble | Bioavailability ([1]; in words): Low
13 | C#C[C@]1(O)CC[C@H]2[C@@H]3CCC4=Cc5oncc5C[C@]4(C)[C@H]3CC[C@@]21C [Danazol] |  |  | Bioavailability ([1]; in words): Low
14 | OCCN(CCO)c1nc(N2CCCCC2)c2nc(N(CCO)CCO)nc(N3CCCCC3)c2n1 [Dipyridamole] | Slightly |  | 
16 | CC(CCc1ccc(O)cc1)NCCc1ccc(O)c(O)c1 (stereo not drawn) [Dobutamine] | Sparingly |  | 
17 | COc1cc2nc(N3CCN(C(=O)C4COc5ccccc5O4)CC3)nc(N)c2cc1OC (stereo not drawn) [Doxazosin] | Slightly |  | 
18 | CCCCCc1cc(O)c2c(c1)OC(C)(C)[C@@H]1CCC(C)=C[C@@H]21 [Dronabinol] |  | Insoluble | 
19 | CCOC(=O)[C@H](CCc1ccccc1)N[C@@H](C)C(=O)N1CCC[C@H]1C(=O)O [Enalapril] | Sparingly |  | 
20 | CCc1cccc2c3c([nH]c12)C(CC)(CC(=O)O)OCC3 (stereo not drawn) [Etodolac] | Insoluble |  | 
21 | COc1cc([C@@H]2c3cc4c(cc3[C@@H](O[C@@H]3O[C@@H]5CO[C@@H](C)O[C@H]5[C@H](O)[C@H]3O)[C@H]3COC(=O)[C@H]23)OCO4)cc(OC)c1O [Etoposide] | Very Slightly |  | 
22 | NC(N)=Nc1nc(CSCCC(N)=NS(N)(=O)=O)cs1 [Famotidine] | Slightly | Slightly soluble | 
23 | CCOC(=O)C1=C(C)NC(C)=C(C(=O)OC)C1c1cccc(Cl)c1Cl (stereo not drawn) [Felodipine] | Insoluble | Insoluble | 
24 | CC(C)(C)NC(=O)[C@H]1CC[C@H]2[C@@H]3CC[C@H]4NC(=O)C=C[C@]4(C)[C@H]3CC[C@]12C [Finasteride] | Insoluble |  | 
25 | OC(Cn1cncn1)(Cn1cncn1)c1ccc(F)cc1F [Fluconazole] | Slightly |  | 
26 | OCCN1CCN(CCCN2c3ccccc3Sc3ccc(C(F)(F)F)cc32)CC1 [Fluphenazine] |  | Insoluble | 

Row | SMILES | Solubility In Water [2] | Solubility In Water [3] | other results
27 | CC(C(=O)O)c1ccc(-c2ccccc2)c(F)c1 (stereo not drawn) [Flurbiprofen] | Slightly |  | 
28 | COCCCC/C(=N\OCCN)c1ccc(C(F)(F)F)cc1 [Fluvoxamine] | Sparingly |  | 
29 | CC(C)Cc1ccc(C(C)C(=O)O)cc1 (stereo not drawn) [Ibuprofen] | Insoluble |  | 
30 | O=[N+]([O-])O[C@H]1CO[C@H]2[C@@H]1OC[C@H]2O[N+](=O)[O-] [Isosorbide dinitrate] | Sparingly | Sparingly soluble | 
31 | CC1=C(/C=C/C(C)=C/C=C/C(C)=C\C(=O)O)C(C)(C)CCC1 [Isotretinoin] | Insoluble |  | 
32 | COC(=O)C1=C(C)NC(C)=C(C(=O)OC(C)C)C1c1cccc2nonc12 (stereo not drawn) [Isradipine] | Insoluble | Insoluble | 
33 | CC(=O)N1CCN(c2ccc(OCC3COC(Cn4ccnc4)(c4ccc(Cl)cc4Cl)O3)cc2)CC1 (stereo not drawn) [Ketoconazole] | Insoluble |  | 
34 | Cc1c(OCC(F)(F)F)ccnc1C[S+]([O-])c1nc2ccccc2[nH]1 (stereo not drawn) [Lansoprazole] | Insoluble |  | 
35 | CC[C@H](C)C(=O)O[C@H]1C[C@@H](C)C=C2C=C[C@H](C)[C@H](CC[C@@H]3C[C@@H](O)CC(=O)O3)[C@H]21 [Lovastatin] | Insoluble | Insoluble | 
36 | Cc1cccc(Nc2ccccc2C(=O)O)c1C [Mefenamic acid] | Slightly |  | 
37 | C[C@@H]1C[C@H]2[C@@H]3CCC4=CC(=O)C=C[C@]4(C)[C@@]3(Cl)[C@@H](O)C[C@]2(C)[C@@]1(O)C(=O)CCl [Mometasone] | Insoluble |  | 
38 | COc1ccc2cc(CCC(C)=O)ccc2c1 [Nabumetone] | Insoluble | Insoluble | 
39 | CO[C@]12C[C@@H](COC(=O)c3cncc(Br)c3)CN(C)[C@@H]1Cc1cn(C)c3cccc2c13 [Nicergoline] | Insoluble |  | 
40 | COc1ccc2[nH]c([S+]([O-])Cc3ncc(C)c(OC)c3C)nc2c1 (stereo not drawn) [Omeprazole] | Slightly |  | 
41 | CC(=O)O[C@H]1C(=O)[C@@]2(C)[C@H]([C@H](OC(=O)c3ccccc3)[C@]3(O)C[C@H](OC(=O)[C@H](O)[C@@H](NC(=O)c4ccccc4)c4ccccc4)C(C)=C1C3(C)C)[C@]1(OC(C)=O)CO[C@@H]1C[C@@H]2O [Paclitaxel] | Insoluble |  | 
42 | OCCN1CCN(CCCN2c3ccccc3Sc3ccc(Cl)cc32)CC1 [Perphenazine] |  |  | Bioavailability ([1]; in words): Low
43 | O=C1NC(=O)C(c2ccccc2)(c2ccccc2)N1 [Phenytoin] | Insoluble |  | 
44 | CN1C(C(=O)Nc2ccccn2)=C(O)c2ccccc2S1(=O)=O [Piroxicam] | Sparingly |  | 
45 | CCOC(=O)[C@H](CCc1ccccc1)N[C@@H](C)C(=O)N1Cc2ccccc2C[C@H]1C(=O)O [Quinapril] | Insoluble |  | 
46 | CCOC(=O)[C@H](CCc1ccccc1)N[C@@H](C)C(=O)N1[C@H](C(=O)O)C[C@@H]2CCC[C@@H]21 [Ramipril] | Insoluble |  | 
47 | CN[C@H]1CC[C@@H](c2ccc(Cl)c(Cl)c2)c2ccccc21 [Sertraline] | Slightly | Slightly soluble | 
48 | CC(=O)S[C@@H]1CC2=CC(=O)CC[C@]2(C)[C@H]2CC[C@@]3(C)[C@@H](CC[C@@]34CCC(=O)O4)[C@H]12 [Spironolactone] |  | Insoluble | 
49 | CC(C)(C)c1ccc(C(O)CCCN2CCC(C(O)(c3ccccc3)c3ccccc3)CC2)cc1 (stereo not drawn) [Terfenadine] | Slightly |  | 
50 | C[C@]12CC[C@H]3[C@@H](CCC4=CC(=O)CC[C@@]43C)[C@@H]1CC[C@@H]2O [Testosterone] |  | Insoluble | Bioavailability ([1]; in words): Low
51 | Cc1ccc(-c2nc3ccc(C)cn3c2CC(=O)N(C)C)cc1 [Zolpidem] | Sparingly |  | 
